Columns and labels:
[1] = n-Octanol/PBS distribution coefficients (logD values); conditions: n-octanol/PBS pH 7.4, pH 7.4
[2] = test system: mouse serum albumin (MSA); assay: Albumin-binding properties in mouse blood plasma (ultrafiltration assay); conditions: ultrafiltration (Amicon, 10 kDa), mouse blood plasma dilutions in PBS pH 7.4, [MSA]-to-[radiopeptide] 0.01–12500, 0.006 nmol, 37 °C 30 min, γ-counter; inverse ratio of B50, [177Lu]Lu-uPAR-01 set as 1.00; average curve of 3 experiments
Procedure: (§1) The relative albumin-binding affinities of the radiopeptides in mouse and human blood plasma were determined using an ultrafiltration assay with Amicon centrifugal filters (cutoff of 10 kDa; Merck Millipore), as previously reported (Supporting Information). A fixed amount of the respective radiopeptide (15 μL, ∼300 kBq, 0.006 nmol) was added to a defined volume (150 μL) of mouse and human blood plasma dilutions to obtain [mouse serum albumin (MSA)]-to-[radiopeptide] and [human serum albumin (HSA)]-to-[radiopeptide] molar concentration ratios of 0.01–12,500 and 0.01–20,000, respectively. The data were analyzed using a semilogarithmic Hill plot with the maximum binding set as 100% (GraphPad Prism software, version 8.3.1).
(§2) Determination of the Albumin-Binding Properties
(§3) Purpose: The radiopeptides were investigated with regard to their albumin-binding capabilities in vitro
(§4) as a measure to predict blood retention in vivo.
(§5) Methods: The relative albumin-binding affinity of the radiopeptides in mouse blood plasma (Rockland
(§6) Immunochemicals, Inc., U.S.A.) and human blood plasma (Stiftung Blutspende SRK Aargau-
(§7) Solothurn, Switzerland) were determined using an ultrafiltration method. The amount of mouse serum
(§8) albumin (MSA) and human serum albumin (HSA) in mouse and human blood plasma was defined as
(§9) 550 μM and 800 μM, respectively, based on measurements using a dry chemistry analyzer (DRI-CHEM
(§10) 4000i, FUJIFILM, Japan). A fixed amount of radiopeptide (50 MBq/nmol, ~300 kBq, 15 μL, 0.006
(§11) nmol) was added to a defined volume (150 μL) of mouse and human blood plasma and various dilutions
(§12) thereof in PBS pH 7.4, resulting in defined [MSA]-to-[radiopeptide] or [HSA]-to-[radiopeptide] molar
(§13) concentration ratios ranging from 0.01 ‒12500 and 0.01‒20000, respectively, followed by incubation of
(§14) the samples at 37 °C for 30 min. Ice-cold PBS (150 µL, pH 7.4) was added before loading the blood
(§15) plasma samples on Amicon centrifugal filters (cut -off of 10 kDa; Merck Millipore) followed by
(§16) centrifugation (14000 rcf, 30 min, 4 °C) to allow the separation of the plasma protein -bound from the
(§17) plasma-unbound (free) fractions of each sample. The inserts of the filter devices were inverted and centrifuged at 200 rcf for 3 min to recover the protein -bound radiopeptide. The activity in the filtrate
(§18) and filter unit was measured in a γ-counter (1480 Wizard, PerkinElmer) and the counts were combined
(§19) assuming that the fraction retained in the filter membrane was not bound to proteins. The protein -bound
(§20) fraction was expressed as percentage of the whole activity (i.e. plasma protein -bound activity, activity
(§21) measured in the filtrate and activity measured in the filter (set as 100%) ). The data were analyzed using
(§22) a semi-logarithmic plot assuming a maximum binding of 100%. The Hill equation was fitted to the data
(§23) points and the half -maximum binding ( B50) based on the average curve obtained from three independent
(§24) experiments (GraphPad Prism software, version 8.3 .1). The relative albumin-binding affinit ies of the
(§25) reference compound, whose relative binding affinity was set as 1.0. The results were presented as the
(§26) B50 value obtained from the average curve from 3 independent experiments.

[3] = Stability of the radiopeptides in human blood plasma; conditions: human
Procedure: (§27) The radiopeptides (50 MBq/nmol) stabilized with L-ascorbic acid were diluted in mouse and human blood plasma and incubated at 37 °C. Aliquots were taken after 1, 4, and 24 h and analyzed using reversed-phase thin-layer chromatography (TLC) (Supporting Information).
(§28) aProduct peak expressed as percentage of the sum of integrated peak areas of the entire chromatogram relative to
(§29) the value obtained immediately after labeling (set as 100%), average ± standard deviation (SD) (n=3).
(§30) Stability of the Radiopeptides in Mouse and Human Blood Plasma
(§31) Purpose: The stability of the radiopeptides was assessed in mouse and human blood plasma as an
indication for their in vivo stability.
(§32) Methods: The radiopeptides (50 MBq/nmol) stabilized with L-ascorbic acid were diluted in mouse
(§33) blood plasma (Lot: 32321, Rockland Immunochemicals Inc., U.S.A.) or in human blood plasma
(§34) (Stiftung Blutspende SRK Aargau -Solothurn, Switzerland) at a concentration of 10 MBq/200 µL and
(§35) incubated at 37 °C over a 24 h time period. Control samples were prepared by diluting the radiopeptides
(§36) in saline at the same activity concentration. Aliquots of each dilution were taken after 1 h, 4 h, and 24 h
(§37) (2 µL, ~100 kBq) and investigated employing thin layer chromatography (TLC) methods on reversed-
(§38) phase TLC plates (MERCK Analytical Chromatography, TLC Silica gel 60 RP -18 F254s) as stationary
(§39) phase and a 3/7 (v/v) mixture of acetonitrile /citrate buffer (0.1 M, pH 5.5) as mobile phase. A dilution
(§40) of [177Lu]LuCl3/HCl 0.04 M (10 MBq/200 µL) was added on each TLC plate. The developed and dried
(§41) TLC plates were exposed to a phosphor screen (Super resolution screen PSR10450013, PerkinElmer)
(§42) for 1 min. The screen was read with a Cyclone Plus phosphor imager (PerkinElmer) and the peak
(§43) quantification was performed using OptiQuant Software (version 5.0).

[4] = test system: human serum albumin (HSA); assay: Albumin-binding properties in human blood plasma (ultrafiltration assay); conditions: ultrafiltration (Amicon, 10 kDa), human blood plasma dilutions in PBS pH 7.4, [HSA]-to-[radiopeptide] 0.01–20000, 0.006 nmol, 37 °C 30 min, γ-counter; inverse ratio of B50, [177Lu]Lu-uPAR-01 set as 1.00; average curve of 3 experiments
Procedure: as §1, §2, §3, §4, §5, §6, §7, §8, §9, §10, §11, §12, §13, §14, §15, §16, §17, §18, §19, §20, §21, §22, §23, §24, §25, §26

[5] = Stability of the radiopeptides in mouse blood plasma; conditions: mouse
Procedure: as §27, §28, §29, §30, §31
indication for their in vivo stability.
as §32, §33, §34, §35, §36, §37, §38, §39, §40, §41, §42, §43

[6] = Radiolytic stability of the radiopeptides in saline with L-ascorbic acid; conditions: 50 MBq/nmol in saline, 150 MBq/300 µL, L-ascorbic acid (3 mg, 20 µL) and NaOAc (0.5 M, 30 µL), HPLC, product peak relative to t=0 (100%), average ± SD, n=3
Procedure: The radiolytic stability of the radiopeptides (50 MBq/nmol) in saline (150 MBq/300 μL) was assessed in the absence and presence of L-ascorbic acid (3 mg added in a volume of 20 μL). After an incubation period of 1, 4, and 24 h, aliquots of the solutions were analyzed using HPLC. The integrated peak area representing the intact radiopeptide was expressed as the percentage of the sum of all peaks of the chromatogram. The final amount of intact radiopeptide was expressed as the percentage of the product peak obtained at t = 0, which was set as 100% (Supporting Information).
The radiolytic stability of [177Lu]Lu-DOTA-AE105 and the new 177Lu-labeled uPAR-targeting
radiopeptides (50 MBq/nmol) was assessed in vitro in the formulated solution . The radiopeptide s were
diluted in saline to obtain an activity concentration of 150 MBq in 300 µL in the presence of L-ascorbic
acid (3 mg, 20 µL) and NaOAc (0.5 M, 30 µL) to compensate for the acidic pH. Aliquots of the dilutions
were analyzed using HPLC after incubation periods of 1 h, 4 h and 24 h . The integrated peak area
measured for the intact radioligand peak was expressed as the percentage of the sum of the integrated
peak areas of each peak present in the chromatogram. The final amount of intact radiopeptide at t = 1 h,
4 h and 24 h was expressed by correcting the obtained percentage of the product peak to this peak
obtained at t = 0, which was set as 100%.

human uPAR = molecular target: T1, human uPAR (Homo sapiens, UniProt Q03405); assay: uPAR-binding affinity (KD values), saturation experiments with HEK-uPAR cells; conditions: saturation binding on HEK-uPAR cells, on ice (4 °C) 1 h, 1–1600 nM radiopeptide, ± AE105 40 µM; γ-counter; nonlinear regression; average ± SD, n=3
T1 construct: host or cells: HEK cells (HEK-uPAR)
Procedure: To determine the uPAR-binding affinity of the radiopeptides, saturation experiments were performed using HEK-uPAR cells in 48-well plates (Supporting Information). The cells were incubated on ice for 1 h in the presence or absence of excess AE105 (final concentration of 40 μM) together with the respective radiopeptide at a concentration range of 1–1600 nM. After rinsing the cells with PBS, they were lysed with an aqueous NaOH solution (1 M, 600 μL), transferred to radioimmunoassay tubes, and measured in a γ-counter (1480 Wizard, PerkinElmer). The K D values were determined by plotting the specific binding (values of samples incubated without AE105 minus the values of samples incubated with AE105) against the molar concentration of the added peptide. A nonlinear regression analysis was performed using GraphPad Prism software (version 8.3.1). The results were expressed as average ± SD of n = 3 independently performed experiments. […]
7. Determination of uPAR-Binding Affinity (KD Values)
Purpose: The uPAR-binding affinity of the radiopeptides were determined to investigate the impact of structural changes on the receptor binding.
Methods: HEK-uPAR cells were seeded in poly-D-lysine-coated 48-well plates (0.25 × 10 6 in 0.5 mL per well) using DMEM cell culture medium with supplements. The cells were incubated at 37 °C and 5% CO2 overnight to allow adhesion and growth. After removing the supernatant, the well plates with HEK-uPAR cells were placed on ice to prevent internalization of the radiopeptides. The cells were rinsed with cold PBS (0.5 mL, pH 7.4) followed by the addition of DMEM cell culture medium without supplements (450 µL/well) in the presence or absence of AE105 ( final concentration 40 µM) as a receptor-blocking agent. The radiopeptides (5 MBq/nmol) were diluted in PBS to obtain peptide concentrations ranging from 10 ‒16000 nM. From each dilution, 50 µL were added to each well to obtain final peptide concentrations of 1 nM to 1600 nM. The cells were incubated at 4 °C for 1 h before rinsing twice with PBS (0.5 mL, pH 7.4). The cells were lysed using an aqueous NaOH solution (1 M, 600 µL) and the lysates were transferred to RIA tubes for counting the activity in a γ-counter (1480 Wizard, PerkinElmer) . The KD values were determined by plotting specific binding (total binding minus unspecific binding) against the molar concentration of the added radiopeptide using GraphPad Prism (version 8.3.1). the results were then expressed as average K D values ± SD of n = 3 independent […]
Results: The results are reported in the main article.

[7] = Biodistribution studies in HEK-uPAR xenograft-bearing nude mice; conditions: female, CD1/nude, mouse, 5 MBq (0.5 nmol), total radioactivity, 5 MBq, 0.5 nmol, decay-corrected, average ± SD, n=3 animals; for tissue uptake at 4 h: 4 h p.i.; for tissue uptake at 24 h: 24 h p.i.
[8] = HEK-uPAR xenograft, HEK-uPAR xgft

T1 sequence (Q03405 23-335): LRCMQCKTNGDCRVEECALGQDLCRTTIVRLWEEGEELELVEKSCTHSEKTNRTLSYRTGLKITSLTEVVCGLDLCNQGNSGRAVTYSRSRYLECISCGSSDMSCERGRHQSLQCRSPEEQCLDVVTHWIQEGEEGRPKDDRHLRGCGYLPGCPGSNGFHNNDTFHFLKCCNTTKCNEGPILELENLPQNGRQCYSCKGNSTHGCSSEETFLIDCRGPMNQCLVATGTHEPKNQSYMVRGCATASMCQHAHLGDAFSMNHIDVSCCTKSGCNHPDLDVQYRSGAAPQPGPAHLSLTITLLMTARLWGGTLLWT

SMILES: CC(C)C[C@H](NC(=O)[C@H](Cc1ccc(O)cc1)NC(=O)[C@@H](CCCNC(=N)N)NC(=O)[C@@H](CO)NC(=O)[C@H](Cc1ccccc1)NC(=O)[C@H](CC1CCCCC1)NC(=O)[C@H](CC(=O)O)NC(=O)[C@H](CCCCNC(=O)CCCc1ccc(I)cc1)NC(=O)[C@@H](N)CCCCNC(=O)CN1CCN(CC(=O)O)CCN(CC(=O)O)CCN(CC(=O)O)CC1)C(=O)N[C@@H](Cc1c[nH]c2ccccc12)C(=O)N[C@@H](CO)C(N)=O [[^177Lu]Lu-uPAR-04, metal not drawn]
- logD [1]: -0.29
- Relative albumin-binding affinity, mouse blood plasma [2]: 1.08
- remaining at 1 h, 10 MBq/200 µL ([3]; blood plasma): 101 ± 3%
- remaining at 24 h, 10 MBq/200 µL ([3]; blood plasma): 90 ± 5%
- remaining at 4 h, 10 MBq/200 µL ([3]; human blood plasma): 98 ± 2%
- Relative albumin-binding affinity, human blood plasma [4]: 1.07
- remaining at 1 h, 10 MBq/200 µL ([5]; blood plasma): 101 ± 2%
- remaining at 24 h, 10 MBq/200 µL ([5]; blood plasma): 98%
- remaining at 4 h, 10 MBq/200 µL ([5]; mouse blood plasma): 99 ± 3%
- radiolytic stability, % intact radiopeptide ([6]; 1 h): 99 ± 1%
- radiolytic stability, % intact radiopeptide ([6]; 4 h): 97 ± 2%
- radiolytic stability after 24 h, intact radiopeptide [%] ([6]; 24 h): 95 ± 2%
- Kd (human uPAR): 57 ± 21 nM
- tissue uptake at 4 h [7, 8]: 3.6 ± 0.2 %ID/g
- tissue uptake at 24 h [7, 8]: 4.3 ± 1.2 %ID/g
- tissue uptake at 4 h ([7]; blood): 13 ± 1 %ID/g
- tissue uptake at 24 h ([7]; blood): 7 ± 0.9 %ID/g
- tissue uptake at 4 h ([7]; bone): 1.2 ± 0.1 %ID/g
- tissue uptake at 24 h ([7]; bone): 0.85 ± 0.04 %ID/g
- tissue uptake at 4 h ([7]; brain): 0.26 ± 0.02 %ID/g
- tissue uptake at 24 h ([7]; brain): 0.14 ± 0.01 %ID/g
- tissue uptake at 4 h ([7]; heart): 4.4 ± 0.6 %ID/g
- tissue uptake at 24 h ([7]; heart): 3 ± 0.3 %ID/g
- tissue uptake at 4 h ([7]; intestines): 1.6 ± 0.1 %ID/g
- tissue uptake at 24 h ([7]; intestines): 0.99 ± 0.21 %ID/g
- tissue uptake at 4 h ([7]; kidneys): 5.9 ± 0.4 %ID/g
- tissue uptake at 24 h ([7]; kidneys): 5.9 ± 1.2 %ID/g
- tissue uptake at 4 h ([7]; liver): 3.9 ± 0.3 %ID/g
- tissue uptake at 24 h ([7]; liver): 3.1 ± 0.4 %ID/g
- tissue uptake at 4 h ([7]; lung): 6.2 ± 0.7 %ID/g
- tissue uptake at 24 h ([7]; lung): 4.3 ± 0.5 %ID/g
- tissue uptake at 4 h ([7]; muscle): 1 ± 0.1 %ID/g
- tissue uptake at 24 h ([7]; muscle): 0.73 ± 0.04 %ID/g
- tissue uptake at 4 h ([7]; pancreas): 1.5 ± 0.1 %ID/g
- tissue uptake at 24 h ([7]; pancreas): 1 ± 0.1 %ID/g
- tissue uptake at 4 h ([7]; salivary glands): 2.8 ± 0.2 %ID/g
- tissue uptake at 24 h ([7]; salivary glands): 2.4 ± 0.4 %ID/g
- tissue uptake at 4 h ([7]; spleen): 1.9 ± 0.1 %ID/g
- tissue uptake at 24 h ([7]; spleen): 2.3 ± 0.3 %ID/g
- tissue uptake at 4 h ([7]; stomach): 1.5 ± 0.1 %ID/g
- tissue uptake at 24 h ([7]; stomach): 1 ± 0.1 %ID/g
